# Assay results: ChEMBL document CHEMBL4340531, “Synthesis and biological evaluation of solithromycin analogs against multidrug resistant pathogens” (Bioorg Med Chem Lett, 2019)
# Legend:
# [1] = tested on: Staphylococcus aureus; assay: Antibacterial activity against wild type Staphylococcus aureus ATCC 29213 incubated for 18 hrs by broth dilution method; assay type: functional; conditions: ATCC 29213, 18 h
# [2] = tested on: Staphylococcus aureus; assay: Antibacterial activity against resistant Staphylococcus aureus UCN14 incubated for 18 hrs by broth dilution method; assay type: functional; conditions: UCN14, 18 h
# [3] = tested on: Staphylococcus aureus; assay: Antibacterial activity against resistant Staphylococcus aureus UCN17 incubated for 18 hrs by broth dilution method; assay type: functional; conditions: UCN17, 18 h
# [4] = tested on: Staphylococcus aureus; assay: Antibacterial activity against resistant Staphylococcus aureus UCN18 incubated for 18 hrs by broth dilution method; assay type: functional; conditions: UCN18, 18 h
# [5] = tested on: Escherichia coli; assay: Antibacterial activity against resistant Escherichia coli DK incubated for 20 hrs by broth dilution method; assay type: functional
# [6] = tested on: Escherichia coli; assay: Antibacterial activity against resistant Escherichia coli DK3535 incubated for 20 hrs by broth dilution method; assay type: functional; conditions: DK3535, 20 h
# [7] = tested on: Escherichia coli; assay: Antibacterial activity against resistant Escherichia coli DK2058G incubated for 20 hrs by broth dilution method; assay type: functional
# [8] = tested on: Escherichia coli; assay: Antibacterial activity against resistant Escherichia coli SQ171 incubated for 20 hrs by broth dilution method; assay type: functional; conditions: SQ171, 20 h
# [9] = tested on: Escherichia coli; assay: Antibacterial activity against resistant Escherichia coli SQ1712058G incubated for 20 hrs by broth dilution method; assay type: functional
# [10] = tested on: Acinetobacter baumannii; assay: Antibacterial activity against multi drug resistant Acinetobacter baumannii ATCC 19606 incubated for 24 hrs by broth dilution method; assay type: functional; conditions: ATCC 19606 = CIP 70.34 = JCM 6841, 24 h
# [11] = tested on: Enterococcus faecium; assay: Antibacterial activity against multi drug resistant Enterococcus faecium NCTC 7171 incubated for 24 hrs by broth dilution method; assay type: functional; conditions: NCTC 7171, 24 h
# [12] = tested on: Enterococcus faecium; assay: Potency index, ratio of solithromycin MIC to compound MIC for multi drug resistant Enterococcus faecium NCTC 7171; assay type: functional
# [13] = tested on: Escherichia coli; assay: Potency index, ratio of solithromycin MIC to compound MIC for resistant Escherichia coli SQ171; assay type: functional
# [14] = tested on: Escherichia coli; assay: Potency index, ratio of solithromycin MIC to compound MIC for resistant Escherichia coli SQ1712058G; assay type: functional
# [15] = Selectivity index, ratio of CC50 for African green monkey Vero cells to MIC for multi drug resistant Enterococcus faecium NCTC 7171; assay type: toxicity; conditions: read-out: Selectivity Index
# [16] = Cytotoxicity against African green monkey Vero cells assessed as reduction in cell viability after 72 hrs by MTS/PMS assay; assay type: cell-based; conditions: chlorocebus sabaeus
# [17] = tested on: Acinetobacter baumannii; assay: Potency index, ratio of solithromycin MIC to compound MIC for multidrug-resistant Acinetobacter baumannii ATCC 19606; assay type: functional, ATCC 19606 = CIP 70.34 = JCM 6841
# [18] = tested on: Escherichia coli; assay: Potency index, ratio of solithromycin MIC to compound MIC for resistant Escherichia coli DK; assay type: functional
# [19] = tested on: Escherichia coli; assay: Potency index, ratio of solithromycin MIC to compound MIC for resistant Escherichia coli DK3535; assay type: functional
# [20] = tested on: Staphylococcus aureus; assay: Potency index, ratio of solithromycin MIC to compound MIC for wild type Staphylococcus aureus ATCC 29213; assay type: functional
SMILES,MIC [1] [µg/mL],MIC [2] [µg/mL],MIC [3] [µg/mL],MIC [4] [µg/mL],MIC [5] [µg/mL],MIC [6] [µg/mL],MIC [7] [µg/mL],MIC [8] [µg/mL],MIC [9] [µg/mL],MIC [10] [µg/mL],MIC [11] [ng/mL],Ratio [12],Ratio [13],Ratio [14],selectivity ratio [15],CC50 at 72 h [16] [µg/mL],Ratio [17],Ratio [18],Ratio [19],Ratio [20]
CC[C@H]1OC(=O)[C@@](C)(F)C(=O)[C@H](C)[C@@H](O[C@@H]2O[C@H](C)C[C@H](N(C)C)[C@H]2O)[C@](C)(OC)C[C@@H](C)C(=O)[C@H](C)[C@H]2N(CCCCn3cc(COc4ccccc4)nn3)C(=O)O[C@]12C,≤ 0.0625,64,8,4,2,4,4,> 32,> 32,25,12,2,–,–,–,–,–,–,–,–
CC[C@H]1OC(=O)[C@@](C)(F)C(=O)[C@H](C)[C@@H](O[C@@H]2O[C@H](C)C[C@H](N(C)C)[C@H]2O)[C@](C)(OC)C[C@@H](C)C(=O)[C@H](C)[C@H]2N(CCCCn3cc(-c4ccc(OC)cc4)nn3)C(=O)O[C@]12C,≤ 0.0625,> 128,32,32,2,2,2,64,> 64,25,1.5,16,–,–,–,–,–,–,–,–
CC[C@H]1OC(=O)[C@@](C)(F)C(=O)[C@H](C)[C@@H](O[C@@H]2O[C@H](C)C[C@H](N(C)C)[C@H]2O)[C@](C)(OC)C[C@@H](C)C(=O)[C@H](C)[C@H]2N(CCCCn3cc(-c4cc(OC)cc([N+](=O)[O-])c4)nn3)C(=O)O[C@]12C,≤ 0.0625,64,32,32,4,2,2,16,8,50,1.5,16,2,4,–,–,–,–,–,–
CC[C@H]1OC(=O)[C@@](C)(F)C(=O)[C@H](C)[C@@H](O[C@@H]2O[C@H](C)C[C@H](N(C)C)[C@H]2O)[C@](C)(OC)C[C@@H](C)C(=O)[C@H](C)[C@H]2N(CCCCn3cc(-c4ccsc4)nn3)C(=O)O[C@]12C,0.25,128,128,128,4,4,4,8,> 64,12,0.094,256,–,–,270000,25,2,–,–,–
CC[C@H]1OC(=O)[C@@](C)(F)C(=O)[C@H](C)[C@@H](O[C@@H]2O[C@H](C)C[C@H](N(C)C)[C@H]2O)[C@](C)(OC)C[C@@H](C)C(=O)[C@H](C)[C@H]2N(CCCCn3cc(-c4cnc(N)s4)nn3)C(=O)O[C@]12C,0.25,64,64,64,2,1,1,> 32,> 32,> 50,24,–,–,–,–,–,–,–,–,–
CC[C@H]1OC(=O)[C@@](C)(F)C(=O)[C@H](C)[C@@H](O[C@@H]2O[C@H](C)C[C@H](N(C)C)[C@H]2O)[C@](C)(OC)C[C@@H](C)C(=O)[C@H](C)[C@H]2N(CCCCn3cc(-c4cc(O)cc([N+](=O)[O-])c4)nn3)C(=O)O[C@]12C,≤ 0.0625,16,4,8,0.5,8,4,32,> 32,25,0.0059,4096,–,–,2e+06,12,–,4,–,–
CC[C@H]1OC(=O)[C@@](C)(F)C(=O)[C@H](C)[C@@H](O[C@@H]2O[C@H](C)C[C@H](N(C)C)[C@H]2O)[C@](C)(OC)C[C@@H](C)C(=O)[C@H](C)[C@H]2N(CCCCn3cc(-c4ccc(N)cc4)nn3)C(=O)O[C@]12C,≤ 0.031,16,8,16,1,1,4,16,> 32,25,24,–,2,–,–,–,–,2,2,–
CC[C@H]1OC(=O)[C@@](C)(F)C(=O)[C@H](C)[C@@H](O[C@@H]2O[C@H](C)C[C@H](N(C)C)[C@H]2O)[C@](C)(OC)C[C@@H](C)C(=O)[C@H](C)[C@H]2N(CCCCn3cc(-c4cccs4)nn3)C(=O)O[C@]12C,≤ 0.0625,32,8,8,2,1,1,32,> 64,6.5,49,–,–,–,–,–,4,–,–,–
CC[C@H]1OC(=O)[C@@](C)(F)C(=O)[C@H](C)[C@@H](O[C@@H]2O[C@H](C)C[C@H](N(C)C)[C@H]2O)[C@](C)(OC)C[C@@H](C)C(=O)[C@H](C)[C@H]2N(CCCCn3cc(-c4cccc(NC(C)=O)c4)nn3)C(=O)O[C@]12C,0.016,> 128,64,64,4,4,8,64,> 64,50,24,–,–,–,–,–,–,–,–,4 - 8
CC[C@H]1OC(=O)[C@H](C)[C@@H](O[C@H]2C[C@@](C)(OC)[C@@H](O)[C@H](C)O2)[C@H](C)[C@@H](O[C@@H]2O[C@H](C)C[C@H](N(C)C)[C@H]2O)[C@](C)(O)C[C@@H](C)CN(C)[C@H](C)[C@@H](O)[C@]1(C)O [AZITHROMYCIN],–,–,–,–,–,–,–,–,–,–,25000,–,–,–,–,–,–,–,–,–
CC[C@H]1OC(=O)[C@H](C)[C@@H](O[C@H]2C[C@@](C)(OC)[C@@H](O)[C@H](C)O2)[C@H](C)[C@@H](O[C@@H]2O[C@H](C)C[C@H](N(C)C)[C@H]2O)[C@](C)(O)C[C@@H](C)C(=O)[C@H](C)[C@@H](O)[C@]1(C)O [ERYTHROMYCIN],–,–,–,–,–,–,–,–,–,–,12000,–,–,–,–,–,–,–,–,–
CC[C@H]1OC(=O)[C@@](C)(F)C(=O)[C@H](C)[C@@H](O[C@@H]2O[C@H](C)C[C@H](N(C)C)[C@H]2O)[C@](C)(OC)C[C@@H](C)C(=O)[C@H](C)[C@H]2N(CCCCn3cc(-c4cccc(N)c4)nn3)C(=O)O[C@]12C [SOLITHROMYCIN],0.06 to 0.12,8,4,4,2,2,4,> 32,> 32,25,24,–,–,–,–,–,–,–,–,–
